In EPA's ToxValDB 9.5:
One block for each molecule: values may come before it.

Tests used:
Mus musculus [1] = conditions: chronic; duration: 2 years; inhalation; M/F; degenerative lesions of the nasal cavity
Rattus norvegicus [2] = conditions: oral
Mus musculus [3] = conditions: short-term, duration: 28 days, oral, gavage, M, C57BL/6
Rattus norvegicus [4] = conditions: oral, gavage; for NEL / LEL: Crl:CD(SD) BR; for LOAEL / NOAEL: Sprague-Dawley
[5] = Liver: Catalase (CAT) Activity, Liver + Multi-organ: Interleukin 1 Beta (IL-1b) mRNA + Spleen: Interleukin 6 (IL-6) mRNA
[6] = Liver: Superoxide Dismutase (SOD) Activity + Multi-organ: Catalase (CAT) Activity, Blood + Multi-organ: Interleukin 1 Beta (IL-1b), Serum + …
[7] = chronic, duration: 92 days, M, Blood: Hematocrit (HCT) + Blood: Hemoglobin (HGB) + Blood: Red Cell Distribution Width (RDW) + Blood: Reticulocytes + Blood: Total Protein (…
[8] = chronic, duration: 92 days, M, Blood: Mean Corpuscular Volume (MCV) + Blood: Red Blood Cell (RBC) + Kidney: Tubular Hypertrophy + Liver: Liver Weight, Relative + Liver: …
[9] = chronic, duration: 92 days, M, Cardiovascular: Aorta: Aorta Histopathology + Cardiovascular: Heart: Heart Histopathology + Cardiovascular: Heart: Heart Weight, Absolute + …
[10] = chronic, duration: 92 days, M, Hematologic: Blood: Activated Partial Thromboplastin Time (APTT) + Hematologic: Blood: Hematocrit (HCT) + Hematologic: Blood: Hemoglobin (…
[11] = chronic, duration: 93 days, F, Blood: Hematocrit (HCT) + Blood: Hemoglobin (HGB) + Blood: Red Blood Cell (RBC) + Blood: Red Cell Distribution Width (RDW) + Blood: …
[12] = chronic, duration: 93 days, F, Liver: Liver Weight, Absolute + Liver: Liver Weight, Relative
[13] = chronic, duration: 93 days, F, Cardiovascular: Aorta: Aorta Histopathology + Cardiovascular: Heart: Heart Histopathology + Cardiovascular: Heart: Heart Weight, Absolute + …
[14] = chronic, duration: 93 days, F, Hematologic: Blood: Activated Partial Thromboplastin Time (APTT) + Hematologic: Blood: Hematocrit (HCT) + Hematologic: Blood: Hemoglobin (…
[15] = developmental, duration: 14 days, M/F, generation: F1, F1: Pelvis: Litters with Pelvis, Incomplete Ossification + F1: Pelvis: Pelvis, Incomplete Ossification + F1: Rib: Litters with Rib, Wavy + …
[16] = developmental, duration: 14 days, M/F, generation: F1, F1: Skull: Litters with Skull, Incomplete Ossification + F1: Skull: Skull, Incomplete Ossification
[17] = developmental, duration: 14 days, M/F, generation: F1, F1: Developmental: Head: Fetal Alterations Count, Head Malformations + F1: Developmental: Head: Litters with Head Malformations + F1: …
[18] = developmental, duration: 14 days, M/F, generation: F1, F1: Developmental: Rib: Rib, Wavy + F1: Developmental: Skull: Litters with Skull, Incomplete Ossification + F1: Developmental: Sternebra: …
[19] = reproduction developmental, duration: 14 days, F, generation: P0, P0: Fur: Stained Fur + P0: Hair/Fur: Alopecia + P0: Intestine: Soft or Liquid Feces + P0: Whole Body: Hunched Posture + P0: Whole Body: …
[20] = reproduction developmental, duration: 14 days, F, generation: P0, P0: Developmental: Uterus: Implantation
[21] = reproduction developmental, duration: 14 days, F, generation: P0, P0: Developmental: Uterus: Implantation + P0: Developmental: Uterus: Resorptions, Mean/Litter + P0: Developmental: Whole Body: No. Male Pups…
[22] = reproduction developmental, duration: 14 days, F, generation: P0, P0: Developmental: Whole Body: No. Male Pups per No. of Pups Sexed + P0: General Toxicity: Whole Body: Hunched Posture + P0: General …

Structure (SMILES): CCC1CO1 (stereo not given) [1,2-Epoxybutane]
LOAEL (Mus musculus [1]): 147 mg/m3

Structure (SMILES): ClCCCCl [1,3-Dichloropropane]
NOAEL (Rattus norvegicus [2]; subchronic, duration: 90 days, gavage, M/F, Sprague-Dawley, Hepatic, Urinary): 50 mg/kg-day

Structure (SMILES): Cc1c(N)cccc1N [2,6-Toluenediamine]
NOAEL (Rattus norvegicus [2]; chronic, duration: 2 years, diet, M, Fischer 344, Whole Body Effects): 25 mg/kg-day
NOAEL (Rattus norvegicus [2]; chronic, duration: 91 days, diet, M, Fischer 344, Whole Body Effects): 62 mg/kg-day

LEL (Mus musculus [3]; [5]): 100 mg/kg-day
NEL (Mus musculus [3]; [5]): 30 mg/kg-day
NEL (Mus musculus [3]; Liver: Glutathione (GSH), Liver + Multi-organ: Chemokine C-X-C motif Ligand 1 (CXCL-1), Serum + Multi-organ: Interleukin 6 (IL-6) mRNA + …): 100 mg/kg-day
LEL (Mus musculus [3]; Liver: Liver Histopathology + Liver: Liver Weight, Absolute + Liver: Liver Weight, Relative + Multi-organ: Chemokine C-X-C motif Ligand 1 (…): 10 mg/kg-day
LEL (Mus musculus [3]; [6]): 30 mg/kg-day
NEL (Mus musculus [3]; [6]): 10 mg/kg-day
NEL (Rattus norvegicus [4]; chronic, duration: 92 days, M, Adrenal: Adrenal Gland Histopathology + Adrenal: Adrenal Gland Weight, Absolute + Adrenal: Adrenal Gland Weight, Relative + Aorta: Aorta …): 125 mg/kg-day
LEL (Rattus norvegicus [4]; [7]): 125 mg/kg-day
NEL (Rattus norvegicus [4]; [7]): 25 mg/kg-day
LEL (Rattus norvegicus [4]; chronic, duration: 92 days, M, Liver: Cholesterol (CHOL), Total, Blood + Thyroid: Colloid Alteration): 1 mg/kg-day
NEL (Rattus norvegicus [4]; chronic, duration: 93 days, F, Adrenal: Adrenal Gland Histopathology + Adrenal: Adrenal Gland Weight, Absolute + Adrenal: Adrenal Gland Weight, Relative + Aorta: Aorta …): 125 mg/kg-day
LEL (Rattus norvegicus [4]; [11]): 125 mg/kg-day
NEL (Rattus norvegicus [4]; [11]): 25 mg/kg-day
LEL (Rattus norvegicus [4]; [12]): 25 mg/kg-day
NEL (Rattus norvegicus [4]; [12]): 5 mg/kg-day
NEL (Rattus norvegicus [4]; developmental, duration: 14 days, M/F, generation: F1, F1: Head: Fetal Alterations Count, Head Malformations + F1: Head: Litters with Head Malformations + F1: Kidney: Litters with Small Renal …): 500 mg/kg-day
LEL (Rattus norvegicus [4]; [15]): 500 mg/kg-day
NEL (Rattus norvegicus [4]; [15]): 200 mg/kg-day
LEL (Rattus norvegicus [4]; [16]): 200 mg/kg-day
NEL (Rattus norvegicus [4]; [16]): 50 mg/kg-day
LEL (Rattus norvegicus [4]; [19]): 500 mg/kg-day
NEL (Rattus norvegicus [4]; [19]): 200 mg/kg-day
NEL (Rattus norvegicus [4]; reproduction developmental, duration: 14 days, F, generation: P0, P0: Ovary: Corpora Lutea + P0: Uterus: Implantation + P0: Uterus: Resorptions, Mean/Litter + P0: Whole Body: Male Pups per Pups Sexed): 500 mg/kg-day
Structure (SMILES): OCCC(F)(F)C(F)(F)C(F)(F)C(F)(F)C(F)(F)C(F)(F)C(F)(F)C(F)(F)F [2-(Perfluorooctyl)ethanol]
LEL (Rattus norvegicus [4]; [8]): 25 mg/kg-day
NEL (Rattus norvegicus [4]; [8]): 5 mg/kg-day
LOAEL (Rattus norvegicus [4]; [9]): 1 mg/kg-day
NOAEL (Rattus norvegicus [4]; [9]): 125 mg/kg-day
LOAEL (Rattus norvegicus [4]; chronic, duration: 92 days, M, Endocrine: Adrenal: Adrenal Gland Histopathology + Endocrine: Adrenal: Adrenal Gland Weight, Absolute + Endocrine: Adrenal: Adrenal Gland …): 1 mg/kg-day
LOAEL (Rattus norvegicus [4]; [10]): 25 mg/kg-day
NOAEL (Rattus norvegicus [4]; [10]): 5 mg/kg-day
LOAEL (Rattus norvegicus [4]; [13]): 1 mg/kg-day
NOAEL (Rattus norvegicus [4]; [13]): 125 mg/kg-day
LOAEL (Rattus norvegicus [4]; chronic, duration: 93 days, F, Endocrine: Adrenal: Adrenal Gland Histopathology + Endocrine: Adrenal: Adrenal Gland Weight, Absolute + Endocrine: Adrenal: Adrenal Gland …): 1 mg/kg-day
LOAEL (Rattus norvegicus [4]; [14]): 25 mg/kg-day
NOAEL (Rattus norvegicus [4]; [14]): 5 mg/kg-day
LOAEL (Rattus norvegicus [4]; [17]): 200 mg/kg-day
NOAEL (Rattus norvegicus [4]; [17]): 20 mg/kg-day
LOAEL (Rattus norvegicus [4]; [18]): 500 mg/kg-day
NOAEL (Rattus norvegicus [4]; [18]): 200 mg/kg-day
LOAEL (Rattus norvegicus [4]; [20]): 500 mg/kg-day
NOAEL (Rattus norvegicus [4]; [20]): 200 mg/kg-day
LOAEL (Rattus norvegicus [4]; [21]): 200 mg/kg-day
NOAEL (Rattus norvegicus [4]; [21]): 20 mg/kg-day
NOAEL (Rattus norvegicus [4]; reproduction developmental, duration: 14 days, F, generation: P0, P0: Developmental: Uterus: Resorptions, Mean/Litter): 500 mg/kg-day
LOAEL (Rattus norvegicus [4]; [22]): 200 mg/kg-day
NOAEL (Rattus norvegicus [4]; [22]): 20 mg/kg-day
